Measured values taken from publication PMC7838189, “Natural podophyllotoxin analog 4DPG attenuates EMT and colorectal cancer progression via activation of checkpoint kinase 2” (Cell Death Discovery, 2021).

How the values were obtained:
[1] = test system: HCT-116/5-FU-R cells; experiment: Acquired 5-FU resistance (MTT cytotoxicity assay); assay type: cell-based; settings: cells selected with increasing 5-FU for at least 20 weeks
Method: (§1) Previously described procedure by Shukla et al. was followed with minor modifications. In brief, wild-type CRC cells (HCT-116, SW-620, and HT-29) were cultured with increasing concentrations of 5-FU for at least 20 weeks. The acquired drug resistance was tested periodically by determining the half maximal inhibitory concentration (IC50) of 5-FU through MTT cytotoxicity assays.
(§2) The experiments were performed using the wild-type and 5-FU-RCRC cells following our standardized protocols, as described previously[56],[57].

[2] = test system: HT-29/5-FU-R cells; experiment: Acquired 5-FU resistance (MTT cytotoxicity assay); assay type: cell-based; settings: cells selected with increasing 5-FU for at least 20 weeks
Method: as §1, §2

[3] = test system: SW-620/5-FU-R cells; experiment: Acquired 5-FU resistance (MTT cytotoxicity assay); assay type: cell-based; settings: cells selected with increasing 5-FU for at least 20 weeks
Method: as §1, §2

[4] = test system: HCT-116, SW-620, and HT-29 cells; experiment: Western blotting of p-Vimentin/Vimentin after transient 5-FU treatment; assay type: cell-based; settings: 5-FU 1 µM (sub-toxic), 24 h; range over HCT-116, SW-620, HT-29 cells; densitometry
From the text: Vimentin belongs to the family of intermediate filament proteins that are known to function in maintaining the shape as well as the integrity of the normal mesenchymal cells[33],[34]. However, it has been established to regulate the cell shape and migration capability during EMT, a phenomenon critical to metastasis of cancer cells[35],[36]. To investigate any plausible contribution of Vimentin to 5-FU resistance in CRC, we treated a panel of three epithelial colorectal carcinoma cell lines (HCT-116, SW-620, and HT-29) with increasing concentrations of the said drug, transiently (24 h). Western blots were generated for the whole-cell lysates obtained from the above set of experiments. Since the phosphorylated Vimentin is an important signal transducer during the EMT process, we analyzed p-Vimentin (ser38) as well as total Vimentin levels in these lysates.
Fig. 1 Vimentin activation and the onset of EMT in CRC cells transiently exposed to 5-FU, as well as in 5-FU-resistant population. […] F Quantification of the number of invaded cells per field from the above invasion assay experiment. n = 3, error bars: mean ± SD; ***P < 0.001. […]
We adhered to the previously published protocol for western blotting. […] Bradford assay was performed to quantify the protein concentration. […]

[5] = test system: orthotopic rat colorectal carcinoma; settings: 25 mg/kg thrice a week for 3 weeks
From the text: To examine the antitumor and anti-metastatic efficacy of 4DPG in vivo, we employed a carcinogen-induced orthotopic rat colorectal carcinoma model. […] The schematic representation briefly describes the steps involved in the generation of orthotopic colorectal tumors along with the treatment strategy and further analysis (details in “Materials and methods”). The animals were euthanized at the end of the experiment and evaluated for tumor and metastatic burden (Fig. 4A). […] To validate whether our in vitro observations on mechanistic inhibition of EMT and invasion by 4DPG hold true in vivo, we performed immunohistochemical analysis of the tumor tissues acquired from the saline and 4DPG-treated animal groups.
A Model depicting the procedure adopted for generating the carcinogen-induced orthotopic rat CRC model, treatment strategies of 4DPG, evaluation of tumor burden, and further biochemical analysis. B Representative images of large bowel showing the colorectal tumor growth in saline, 5-FU (25 mg/kg), and 4DPG (25 mg/kg) treated groups of animals. C, D Quantification of tumor volume and number of polyps per rat in above groups of animals. n = 6 rats per group, error bars: mean ± SD; *P < 0.05, **P < 0.01, ***P < 0.001. E Representative images of the lungs dissected from the above groups of animals showing metastatic tumor burden. Orange arrows indicating bumps of secondary tumors over each lobe of lungs. F, G Quantification of a number of macroscopic secondary tumors over the lung tissues and lung weight in the above groups of animals. n = 6 rats per group, error bars, mean ± SD; **P < 0.01, ***P < 0.001. […] Scale bar: 50 µm. I Western blots depicting expression of p-Chk2 (Thr68), Chk2, p53, p-Vimentin (Ser38), and Vimentin in tumor tissues obtained from saline- and 4DPG-treated groups of animals. β-Actin expression was taken as endogenous loading control. J Densitometry analysis of the above western blot bands portraying relative protein expression of the markers presented. n = 3, error bars: mean ± SD; **P < 0.01, ***P < 0.001.
Animal studies were performed following the guidelines approved by Institutional Animal Ethics Committee (IAEC No. 51/02/15) of CSIR-Indian Institute of Integrative Medicine, Jammu, India. The experiment was performed according to our standardized protocol described previously with necessary modifications. Five-weeks-old healthy male Wistar rats (body weight 150–200 g) were maintained in aseptic condition with free access to food and water. Animals were randomized into three groups, with six animals per group. All the rats received intrarectal instillation of 0.5 mL of freshly prepared 0.4% aqueous solution of N-methyl-N-nitrosourea (MNU) thrice a week for 3 weeks, for the orthotopic induction of colorectal tumors. The solution was injected using sterile syringe with attached 8-cm long rubber catheter tube inserted two-thirds into the colon lumen through anal orifice, as described previously. The animals were kept under continuous monitoring, and the body weight was measured once per week. Following 22 weeks after the initiation of MNU administration, treatment regimens were started by administering 5-FU (25 mg/kg), and 4DPG (25 mg/kg) thrice a week for 3 weeks. The control and treatment groups of animals were dosed separately by three independent investigators and the outcomes were assessed by a fourth investigator blind about the dosing process and treatment regimen.

[6] = test system: HCT-116/5-FU-R cells; experiment: Matrigel invasion assay; assay type: cell-based; settings: PV1019-treated, 48 h
From the text: (§3) To examine whether 4DPG-mediated repression of Vimentin and invasiveness is a Chk2-dependent process, we performed genetic silencing of endogenous Chk2 in the 5-FU-R cells using target-specific SiRNAs.
Fig. 3 Chk2-dependent role of 4DPG in modulating p53 and repressing Vimentin expression in 5-FU-R cells. A Immunocytochemistry results showing the Vimentin expression level in SW-620/5-FU-R cells treated/transfected with scramble, SiChk2, scramble plus 4DPG, SiChk2 plus 4DPG, vehicle, PV1019, 4DPG, and PV1019 plus 4DPG for 48 h. Scale bars: 50 µm. […] C Matrigel invasion assay results showing invaded HCT-116/5-FU-R and SW-620/5-FU-R cells following 48 h of transient transfection with GFP and GFP-Chk2 plasmid construct. Scale bars: 50 µm. D Quantification of the number of invaded cells per field from the above experimental conditions. n = 3, error bars, mean ± SD; *P < 0.05, ***P < 0.001. E Immunocytochemistry results displaying Vimentin expression levels in HCT-116/5-FU-R and SW-620/5-FU-R cells after 48 h of transient transfection with pCDNA3 and/or HA-Chk2 plasmid construct. Scale bars: 50 µm. F Immunoprecipitation with Vimentin or p53 followed by western blotting analysis of p53 in SW-620/5-FU-R cells treated with vehicle and/or 4DPG (300 nM) for 48 h. […]

[7] = test system: SW-620/5-FU-R cells; experiment: Immunocytochemistry of Vimentin; assay type: cell-based; settings: PV1019 alone, 48 h
From the text: 4DPG, a podophyllotoxin class of natural product anticancer compound (Supplementary Fig. S2A) has been recently described by our research group for its potent antitumor and anti-metastatic properties against aggressive cancers[31],[32]. Further, 4DPG augments phosphorylation and activation of Chk2 (Thr68) leading to suppression of EMT and invasiveness of p53-defective cancer cells. To investigate the effect of 4DPG on phosphorylation and expression levels of Chk2 in HCT-116/5-FU-R, SW-620/5-FU-R, and HT-29/5-FU-R cells, we treated these cells for 48 h with increasing concentrations of the compound, and whole-cell lysates were subjected to western blotting analysis. […] To determine the effect of 4DPG on the invasion abilities of these 5-FU-R cells, we performed in situ fluorescent gelatin degradation assay following our pre-standardized protocol[31],[37]. In physiological conditions, this assay mimics the extracellular matrix degradation by aggressive tumor cells undergoing invasion–metastasis process.
as §3
Fig. 3 Chk2-dependent role of 4DPG in modulating p53 and repressing Vimentin expression in 5-FU-R cells. A Immunocytochemistry results showing the Vimentin expression level in SW-620/5-FU-R cells treated/transfected with scramble, SiChk2, scramble plus 4DPG, SiChk2 plus 4DPG, vehicle, PV1019, 4DPG, and PV1019 plus 4DPG for 48 h. Scale bars: 50 µm. […] C Matrigel invasion assay results showing invaded HCT-116/5-FU-R and SW-620/5-FU-R cells following 48 h of transient transfection with GFP and GFP-Chk2 plasmid construct. Scale bars: 50 µm. D Quantification of the number of invaded cells per field from the above experimental conditions. n = 3, error bars, mean ± SD; *P < 0.05, ***P < 0.001. E Immunocytochemistry results displaying Vimentin expression levels in HCT-116/5-FU-R and SW-620/5-FU-R cells after 48 h of transient transfection with pCDNA3 and/or HA-Chk2 plasmid construct. Scale bars: 50 µm. F Immunoprecipitation with Vimentin or p53 followed by western blotting analysis of p53 in SW-620/5-FU-R cells treated with vehicle and/or 4DPG (300 nM) for 48 h. G Cytosolic (left panel) and nuclear (right panel) extracts of SW-620/5-FU-R cells treated with vehicle and/or 4DPG (300 nM) for 48 h showing protein expression of Vimentin and p53. Tubulin and lamin expression was considered as endogenous loading controls for cytosolic and nuclear fractions, respectively.
We followed the standard protocol with some modifications for immunocytochemistry[56],[58]. In brief, cells, at a density of 4 × 10^5 cells/well, were seeded over the sterile coverslips placed in six-well plates. Following the respective treatment, cells were washed thrice with PBS. Next, the cells were fixed with 4% paraformaldehyde (pH = 7.4) for 15 min, permeabilized with 0.3% Triton X-100 for 10 min, and then blocked with 1% goat serum for 30 min. Consequently, the cells were incubated with anti-Vimentin antibody overnight at 4 °C, at a dilution of 1:100, followed by washing with PBST and further incubation with secondary anti-rabbit Alexa Fluor 488 (1:750 dilution). After subsequent washing and mounting, the images were captured at ×20 magnification under Floid Cell Imaging Station (Invitrogen).

| SMILES | acquired resistance up to (5-FU concentration) [1] | acquired resistance up to (5-FU concentration) [2] [µM] | acquired resistance up to (5-FU concentration) [3] [µM] | boost in p-Vimentin (ser38) [4] | increase in Vimentin expression level [4] | lung metastases [5] | average number of polyps ([5]; control group 16) | mean tumor volume ([5]; saline control 820.6 mm^3) [mm^3] | number of invaded cells [6] | Vimentin level (immunocytochemistry) [7] |
| --- | --- | --- | --- | --- | --- | --- | --- | --- | --- | --- |
| O=c1[nH]cc(F)c(=O)[nH]1 [5-FU, 5-fluorouracil] | up to 50 µM | ≤ 45 | ≤ 60 | 2–7.8 fold | 2.1–8.5 fold | could not restrict the metastatic spread | 8 | 231 | – | – |
| CC(=NNC(=N)N)c1ccc(NC(=O)c2cc3cccc([N+](=O)[O-])c3[nH]2)cc1 [PV1019, 7-nitro-1H-indole-2-carboxylic acid {4-[1-(guanidinohydrazone)-ethyl]-phenyl}-amide, reference compound] | – | – | – | – | – | – | – | – | remarkable increase | increased Vimentin level |
